Results on two compounds are retold here after ChEMBL document CHEMBL3044753, “Polyamines May Modulate Both G Protein-Coupled Receptors and G Proteins” (Med Chem Res, 2004).

Type in all cases: functional, tissue-based
The subject of assay [1] is Left cardiac atrium. In words: Negative ionotropic activity in electrically-paced Cavia porcellus (guinea pig) left atrium measured immediately by isometric transducer analysis in absence of benzalkonium/prazosin.
The test system of assay [2] is Right cardiac atrium. In words: Negative ionotropic activity in electrically-paced Cavia porcellus (guinea pig) right atrium assessed as effect on force measured immediately by isometric transducer analysis in absence of benzalkonium/prazosin.
The test system of assay [3] is Right cardiac atrium. The assay is described as follows: Negative […] activity in electrically-paced Cavia porcellus (guinea pig) right atrium assessed as effect on force measured after 60 min by isometric transducer analysis in presence of benextramine/4-DAMP mustard. To be noted: 1 h.
Assay [4] relates to Right cardiac atrium. The assay is described as follows: Negative […] activity in electrically-paced Cavia porcellus (guinea pig) right atrium assessed as effect on force measured after 60 min by isometric transducer analysis in absence of benextramine/4-DAMP mustard. To be noted: 1 h.
Assay [5] concerns Left cardiac atrium. The assay is described as follows: Negative ionotropic activity in electrically-paced Cavia porcellus (guinea pig) left atrium measured after 60 min by isometric transducer analysis in presence of benextramine/4-DAMP mustard. Conditions: 1 h.
Assay [6] relates to Left cardiac atrium. The assay is described as follows: Negative ionotropic activity in electrically-paced Cavia porcellus (guinea pig) left atrium measured after 60 min by isometric transducer analysis in absence of benextramine/4-DAMP mustard. Conditions: 1 h.

For orientation: EC50 means the concentration that produces a half-maximal response. As to `C#CCOC(=O)C1=CCCN(C)C1` [ARECAIDINE PROPARGYL ESTER], the EC50 is 4570 pM in the assay with Left cardiac atrium [1] and 1700 pM with Right cardiac atrium [2].

In the case of `CCCCCCCCCCCCNC(=O)[C@@H](N)CCCCN` [N-DODECYL LYSINE AMIDE], the EC50 is 282 pM with Right cardiac atrium [3], 417 pM in the assay on Right cardiac atrium [4], 363 pM in the assay with Left cardiac atrium [5] and 417 pM in the assay on Left cardiac atrium [6].
